{"source": "patent US9050341B2", "about": "“Methods of treating drug resistant and other tumors by administering 6,7-dialkoxy quinazoline derivatives” (NATCO PHARMA LIMITED, priority 2009, dated 2015)", "assay_in_all_cases": "KinomeScan kinase profiling", "assay_type_in_all_cases": "binding", "key": {"FGFR2": {"target": "T1, FGFR2 (Homo sapiens, UniProt P21802)", "T1 construct": "host or cells: E. coli host derived from BL21, infected with T7 phage"}, "YANK2": {"target": "T2, YANK2 (Homo sapiens, UniProt Q9NY57)", "T2 construct": "purchased Ambit Biosciences Corp (KinomeScan); host or cells: E. coli host derived from the BL21 strain (T7 phage lysate)", "T2 sequence (Q9NY57 whole entry)": "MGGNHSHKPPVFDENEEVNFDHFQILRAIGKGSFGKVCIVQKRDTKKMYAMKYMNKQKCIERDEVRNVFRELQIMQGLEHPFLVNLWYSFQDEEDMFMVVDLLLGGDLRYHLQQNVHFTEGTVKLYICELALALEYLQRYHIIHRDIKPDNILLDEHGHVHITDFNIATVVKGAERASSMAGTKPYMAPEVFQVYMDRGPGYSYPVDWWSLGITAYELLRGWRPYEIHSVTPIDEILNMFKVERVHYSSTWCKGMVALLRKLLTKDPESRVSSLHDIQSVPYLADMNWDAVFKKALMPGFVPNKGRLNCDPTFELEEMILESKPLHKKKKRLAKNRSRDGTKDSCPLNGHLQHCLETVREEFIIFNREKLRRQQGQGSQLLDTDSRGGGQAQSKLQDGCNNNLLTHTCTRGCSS"}, "DMPK2": {"target": "T3, DMPK2 (Homo sapiens, UniProt Q6DT37)", "T3 construct": "purchased Ambit Biosciences Corp (KinomeScan); host or cells: T7 phage in E. coli host derived from BL21"}, "CHEK1": {"target": "T4, CHEK1 (Homo sapiens, UniProt O14757)", "T4 construct": "host or cells: T7 phage in E. coli (BL21-derived)"}, "[1]": {"target": "T5, RPS6KA2 (Kin.Dom.-1-N-terminal) (Homo sapiens, UniProt Q15349)", "T5 construct": "RPS6KA2 (Kin.Dom.-1-N-terminal); host or cells: E. coli host derived from BL21, T7 phage lysate", "T5 sequence (Q15349 59-318 limits assumed)": "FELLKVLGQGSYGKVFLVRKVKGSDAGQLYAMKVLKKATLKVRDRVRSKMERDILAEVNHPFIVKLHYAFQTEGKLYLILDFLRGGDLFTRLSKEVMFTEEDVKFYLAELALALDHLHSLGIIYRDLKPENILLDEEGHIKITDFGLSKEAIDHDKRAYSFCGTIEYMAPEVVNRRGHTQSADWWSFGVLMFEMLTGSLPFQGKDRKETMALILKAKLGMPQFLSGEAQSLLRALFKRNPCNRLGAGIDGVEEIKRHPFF"}, "STK33": {"target": "T6, STK33 (Homo sapiens, UniProt Q9BYT3)", "T6 construct": "host or cells: E. coli host derived from the BL21 strain, T7 phage lysate"}, "MAPKAPK2": {"target": "T7, MAPKAPK2 (Homo sapiens, UniProt P49137)", "T7 construct": "host or cells: E. coli derived from BL21, infected with T7 phage", "T7 sequence (P49137 whole entry)": "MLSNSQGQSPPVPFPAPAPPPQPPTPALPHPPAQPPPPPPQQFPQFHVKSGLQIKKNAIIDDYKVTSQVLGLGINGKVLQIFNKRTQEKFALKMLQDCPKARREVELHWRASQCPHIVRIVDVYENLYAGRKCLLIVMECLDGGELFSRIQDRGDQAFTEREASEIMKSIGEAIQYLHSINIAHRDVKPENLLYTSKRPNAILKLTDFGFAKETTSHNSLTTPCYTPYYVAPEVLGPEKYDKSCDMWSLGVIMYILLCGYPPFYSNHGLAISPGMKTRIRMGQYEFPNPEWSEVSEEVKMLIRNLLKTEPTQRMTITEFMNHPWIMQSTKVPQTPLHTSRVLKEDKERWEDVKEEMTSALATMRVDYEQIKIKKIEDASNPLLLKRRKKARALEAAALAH"}, "CAMK4": {"target": "T8, CAMK4 (Homo sapiens, UniProt Q16566)", "T8 construct": "host or cells: T7 phage in E. coli (BL21-derived)", "T8 sequence (Q16566 whole entry, the tested form may be a part)": "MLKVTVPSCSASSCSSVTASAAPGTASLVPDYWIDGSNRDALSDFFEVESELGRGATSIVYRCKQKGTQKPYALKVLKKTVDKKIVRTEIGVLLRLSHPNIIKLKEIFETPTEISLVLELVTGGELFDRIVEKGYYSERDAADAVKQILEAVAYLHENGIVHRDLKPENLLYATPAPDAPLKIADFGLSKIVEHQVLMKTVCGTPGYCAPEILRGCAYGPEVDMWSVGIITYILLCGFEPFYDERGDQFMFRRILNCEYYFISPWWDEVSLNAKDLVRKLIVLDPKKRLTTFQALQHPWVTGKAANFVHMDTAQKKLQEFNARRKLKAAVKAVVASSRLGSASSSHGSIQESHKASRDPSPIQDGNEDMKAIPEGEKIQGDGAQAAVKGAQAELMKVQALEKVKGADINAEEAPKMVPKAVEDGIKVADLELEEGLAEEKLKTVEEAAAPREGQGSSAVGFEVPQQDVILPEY", "how_it_was_run": "(§1)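 Kinases were expressed as T7 phage fusions in a BL21-derived E. coli host and the cleared lysates were used. Ligand beads were blocked with biotin and buffer (1% BSA, 0.05% Tween 20, 1 mM DTT). Compounds came from 40× DMSO stocks, and phage in the eluates was titred by qPCR.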"}, "HIPK1": {"target": "T9, HIPK1 (Homo sapiens, UniProt Q86Z02)", "T9 construct": "host or cells: E. coli host derived from BL21, infected with T7 phage", "how_it_was_run": "as §1"}, "MST2": {"target": "T10, MST2 (Homo sapiens, UniProt Q13188)", "T10 construct": "host or cells: T7 phage in E. coli host derived from BL21", "T10 sequence (Q13188 whole entry)": "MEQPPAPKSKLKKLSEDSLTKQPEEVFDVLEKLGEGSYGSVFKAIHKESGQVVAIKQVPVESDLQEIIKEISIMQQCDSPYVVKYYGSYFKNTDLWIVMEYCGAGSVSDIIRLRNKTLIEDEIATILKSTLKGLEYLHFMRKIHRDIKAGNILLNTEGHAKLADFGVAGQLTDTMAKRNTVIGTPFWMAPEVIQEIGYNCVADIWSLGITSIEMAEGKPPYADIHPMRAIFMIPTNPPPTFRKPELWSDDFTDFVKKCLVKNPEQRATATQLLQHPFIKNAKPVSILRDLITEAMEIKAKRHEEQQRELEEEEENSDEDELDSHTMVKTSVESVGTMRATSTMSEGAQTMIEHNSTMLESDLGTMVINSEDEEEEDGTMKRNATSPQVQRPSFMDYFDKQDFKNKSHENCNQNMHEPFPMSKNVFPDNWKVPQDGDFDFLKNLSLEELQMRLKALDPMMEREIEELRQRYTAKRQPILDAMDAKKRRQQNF", "how_it_was_run": "as §1"}, "ERK3": {"target": "T11, ERK3 (Homo sapiens, UniProt Q16659)", "T11 construct": "host or cells: E. coli host derived from BL21, T7 phage lysate", "T11 sequence (Q16659 whole entry)": "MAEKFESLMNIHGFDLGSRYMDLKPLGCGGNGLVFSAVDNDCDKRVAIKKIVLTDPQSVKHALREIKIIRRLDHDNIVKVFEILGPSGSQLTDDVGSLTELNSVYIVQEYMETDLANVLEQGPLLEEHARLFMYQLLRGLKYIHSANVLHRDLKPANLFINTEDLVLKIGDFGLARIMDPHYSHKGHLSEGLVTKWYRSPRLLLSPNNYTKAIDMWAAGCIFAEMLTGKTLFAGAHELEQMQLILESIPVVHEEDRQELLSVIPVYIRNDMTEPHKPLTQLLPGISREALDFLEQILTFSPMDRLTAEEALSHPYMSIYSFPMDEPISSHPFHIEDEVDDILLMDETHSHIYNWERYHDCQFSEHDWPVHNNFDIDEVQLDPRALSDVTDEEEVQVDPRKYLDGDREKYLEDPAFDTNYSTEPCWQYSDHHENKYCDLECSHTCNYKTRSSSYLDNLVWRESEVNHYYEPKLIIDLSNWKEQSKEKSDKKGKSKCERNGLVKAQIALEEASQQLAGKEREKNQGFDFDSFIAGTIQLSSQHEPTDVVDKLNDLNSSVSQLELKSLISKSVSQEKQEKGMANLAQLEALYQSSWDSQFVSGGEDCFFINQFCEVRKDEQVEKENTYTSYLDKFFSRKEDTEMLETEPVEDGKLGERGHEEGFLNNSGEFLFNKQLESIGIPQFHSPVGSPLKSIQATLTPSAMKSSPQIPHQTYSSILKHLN", "how_it_was_run": "as §1"}, "MKNK2": {"target": "T12, MKNK2 (Homo sapiens, UniProt Q9HBH9)", "T12 construct": "host or cells: T7 phage in E. coli host derived from BL21", "T12 sequence (Q9HBH9 whole entry)": "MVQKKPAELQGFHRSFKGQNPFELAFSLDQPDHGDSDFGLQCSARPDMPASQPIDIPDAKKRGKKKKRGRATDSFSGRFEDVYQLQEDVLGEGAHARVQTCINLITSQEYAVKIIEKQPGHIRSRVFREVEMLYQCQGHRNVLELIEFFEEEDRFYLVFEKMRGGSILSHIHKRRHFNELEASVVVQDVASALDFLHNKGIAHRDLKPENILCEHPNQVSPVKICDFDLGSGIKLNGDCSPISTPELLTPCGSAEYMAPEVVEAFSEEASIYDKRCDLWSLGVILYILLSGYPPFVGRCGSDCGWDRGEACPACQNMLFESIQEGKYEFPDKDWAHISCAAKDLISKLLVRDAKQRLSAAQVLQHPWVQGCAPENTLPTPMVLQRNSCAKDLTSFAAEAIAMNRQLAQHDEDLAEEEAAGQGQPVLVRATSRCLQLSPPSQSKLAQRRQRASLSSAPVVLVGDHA", "how_it_was_run": "as §1"}, "[2]": {"target": "T13, RPS6KA5 (Kin.Dom.-1-N-terminal) (Homo sapiens, UniProt O75582)", "T13 construct": "RPS6KA5 (Kin.Dom.-1-N-terminal); host or cells: E. coli host derived from BL21, T7 phage lysate", "T13 sequence (O75582 49-318 limits assumed)": "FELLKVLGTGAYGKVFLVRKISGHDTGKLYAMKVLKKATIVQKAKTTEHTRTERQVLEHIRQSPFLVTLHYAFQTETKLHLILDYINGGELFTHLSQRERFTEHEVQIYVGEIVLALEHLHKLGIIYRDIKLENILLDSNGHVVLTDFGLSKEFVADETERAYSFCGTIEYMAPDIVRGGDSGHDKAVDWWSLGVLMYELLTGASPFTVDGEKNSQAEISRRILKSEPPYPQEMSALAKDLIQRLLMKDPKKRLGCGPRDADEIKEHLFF", "how_it_was_run": "as §1"}, "EPHB1": {"target": "T14, EPHB1 (Homo sapiens, UniProt P54762)", "T14 construct": "host or cells: E. coli host derived from BL21, T7 phage lysate", "how_it_was_run": "as §1"}, "PLK3": {"target": "T15, PLK3 (Homo sapiens, UniProt Q9H4B4)", "T15 construct": "purchased Ambit Biosciences Corp (KinomeScan); host or cells: E. coli host derived from BL21, infected with T7 phage", "T15 sequence (Q9H4B4 whole entry)": "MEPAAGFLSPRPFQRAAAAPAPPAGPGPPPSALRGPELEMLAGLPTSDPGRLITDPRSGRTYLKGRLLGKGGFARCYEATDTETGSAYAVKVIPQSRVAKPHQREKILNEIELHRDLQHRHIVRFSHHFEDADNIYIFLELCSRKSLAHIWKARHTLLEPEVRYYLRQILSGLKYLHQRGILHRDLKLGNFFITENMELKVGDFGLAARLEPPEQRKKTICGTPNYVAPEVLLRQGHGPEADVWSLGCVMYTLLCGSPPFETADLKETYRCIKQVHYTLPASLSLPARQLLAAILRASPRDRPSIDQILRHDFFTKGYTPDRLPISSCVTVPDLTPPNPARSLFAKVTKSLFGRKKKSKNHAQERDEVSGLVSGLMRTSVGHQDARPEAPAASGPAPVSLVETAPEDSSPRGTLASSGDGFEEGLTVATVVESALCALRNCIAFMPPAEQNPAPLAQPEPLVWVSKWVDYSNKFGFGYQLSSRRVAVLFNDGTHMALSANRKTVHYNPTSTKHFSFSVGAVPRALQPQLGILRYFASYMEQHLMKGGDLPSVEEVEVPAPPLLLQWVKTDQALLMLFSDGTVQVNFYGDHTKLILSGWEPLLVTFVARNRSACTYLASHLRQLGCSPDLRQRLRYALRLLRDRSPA", "how_it_was_run": "as §1"}, "ERK8": {"target": "T16, ERK8 (Homo sapiens, UniProt Q8TD08)", "T16 construct": "host or cells: E. coli host derived from BL21, T7 phage lysate", "how_it_was_run": "as §1"}, "ACVRL1": {"target": "T17, ACVRL1 (Homo sapiens, UniProt P37023)", "T17 construct": "host or cells: E. coli host derived from BL21 (T7 phage lysate)"}, "EPHA1": {"target": "T18, EPHA1 (Homo sapiens, UniProt P21709)", "T18 construct": "host or cells: E. coli host derived from BL21, T7 phage lysate"}, "MLK3": {"target": "T19, MLK3 (Homo sapiens, UniProt Q16584)", "T19 construct": "host or cells: T7 phage in E. coli host derived from BL21", "T19 sequence (Q16584 whole entry)": "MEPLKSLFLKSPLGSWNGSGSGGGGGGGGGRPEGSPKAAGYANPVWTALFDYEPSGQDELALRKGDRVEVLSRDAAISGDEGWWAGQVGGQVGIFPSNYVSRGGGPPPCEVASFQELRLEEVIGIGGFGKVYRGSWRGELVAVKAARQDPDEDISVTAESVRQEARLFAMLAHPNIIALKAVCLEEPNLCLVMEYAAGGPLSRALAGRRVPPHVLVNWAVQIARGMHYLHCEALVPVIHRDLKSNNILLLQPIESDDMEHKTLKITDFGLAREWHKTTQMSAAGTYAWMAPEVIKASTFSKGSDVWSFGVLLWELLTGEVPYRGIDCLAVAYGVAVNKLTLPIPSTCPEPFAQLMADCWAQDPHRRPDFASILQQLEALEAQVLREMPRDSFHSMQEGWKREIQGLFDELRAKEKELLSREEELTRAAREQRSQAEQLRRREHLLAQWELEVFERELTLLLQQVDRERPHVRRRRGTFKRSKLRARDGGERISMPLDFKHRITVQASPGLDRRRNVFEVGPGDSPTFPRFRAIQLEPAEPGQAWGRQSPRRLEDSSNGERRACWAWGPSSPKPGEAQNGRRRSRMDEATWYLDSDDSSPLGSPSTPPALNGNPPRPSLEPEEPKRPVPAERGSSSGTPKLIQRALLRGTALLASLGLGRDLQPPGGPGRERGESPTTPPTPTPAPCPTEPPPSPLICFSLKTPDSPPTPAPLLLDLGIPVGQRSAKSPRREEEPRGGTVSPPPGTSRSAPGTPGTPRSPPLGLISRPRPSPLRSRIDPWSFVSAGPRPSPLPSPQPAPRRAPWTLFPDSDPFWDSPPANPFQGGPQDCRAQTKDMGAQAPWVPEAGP"}, "MEK6": {"target": "T20, MEK6 (Homo sapiens, UniProt P52564)", "T20 construct": "host or cells: E. coli derived from BL21, infected with T7 phage"}, "[3]": {"target": "T21, RPS6KA1 (Kin.Dom.-2-C-terminal) (Homo sapiens, UniProt Q15418)", "T21 construct": "RPS6KA1 (Kin.Dom.-2-C-terminal); host or cells: E. coli host derived from BL21, T7 phage lysate"}}}
{"compound": "C#Cc1cccc(Nc2ncnc3cc(OC)c(OCCCN4CCOCC4)cc23)c1", "note": "[NRC-2694, N-(3-ethylnylphenyl)-7-methoxy-6-[3-(4-morpholinyl)propoxy]-4-quinazolinamine]", "values": [{"measurement": "% Ctrl @ 10000 nM", "setting": "FGFR2", "result": 100, "unit": "% Ctrl"}, {"measurement": "% Ctrl @ 10000 nM", "setting": "YANK2", "result": 68, "unit": "% Ctrl"}, {"measurement": "% Ctrl @ 10000 nM", "setting": "DMPK2", "result": 61, "unit": "% Ctrl"}, {"measurement": "% Ctrl @ 10000 nM", "setting": "CHEK1", "result": 42, "unit": "% Ctrl"}, {"measurement": "% Ctrl @ 10000 nM", "setting": "[1]", "result": 70, "unit": "% Ctrl"}, {"measurement": "% Ctrl @ 10000 nM", "setting": "STK33", "result": 43, "unit": "% Ctrl"}, {"measurement": "% Ctrl @ 10000 nM", "setting": "MAPKAPK2", "result": 90, "unit": "% Ctrl"}, {"measurement": "% Ctrl @ 10000 nM", "setting": "CAMK4", "result": 92, "unit": "% Ctrl"}, {"measurement": "% Ctrl @ 10000 nM", "setting": "HIPK1", "result": 70, "unit": "% Ctrl"}, {"measurement": "% Ctrl @ 10000 nM", "setting": "MST2", "result": 85, "unit": "% Ctrl"}, {"measurement": "% Ctrl @ 10000 nM", "setting": "ERK3", "result": 10, "unit": "% Ctrl"}, {"measurement": "% Ctrl @ 10000 nM", "setting": "MKNK2", "result": 16, "unit": "% Ctrl"}, {"measurement": "% Ctrl @ 10000 nM", "setting": "[2]", "result": 85, "unit": "% Ctrl"}, {"measurement": "% Ctrl @ 10000 nM", "setting": "EPHB1", "result": 72, "unit": "% Ctrl"}, {"measurement": "% Ctrl @ 10000 nM", "setting": "PLK3", "result": 97, "unit": "% Ctrl"}, {"measurement": "% Ctrl @ 10000 nM", "setting": "ERK8", "result": 62, "unit": "% Ctrl"}, {"measurement": "% Ctrl @ 10000 nM", "setting": "ACVRL1", "result": 91, "unit": "% Ctrl"}, {"measurement": "% Ctrl @ 10000 nM", "setting": "EPHA1", "result": 55, "unit": "% Ctrl"}, {"measurement": "% Ctrl @ 10000 nM", "setting": "MLK3", "result": 72, "unit": "% Ctrl"}, {"measurement": "% Ctrl @ 10000 nM", "setting": "MEK6", "result": 75, "unit": "% Ctrl"}, {"measurement": "% Ctrl @ 10000 nM", "setting": "[3]", "result": 49, "unit": "% Ctrl"}]}
